Results reported in patent US20210316013A1, “HAEMATOPOIETIC STEM CELL-GENE THERAPY FOR WISKOTT-ALDRICH SYNDROME” (priority 2018, published 2021).

System: Jurkat cells
Assay: Titration of 6TG dosing window, Jurkat cell viability
Format: cell-based
Details: 6TG 0.01-100 μM, viability after 2 days, cell counter TC20
Method: Jurkat cells were incubated in a 96-well plate with different concentrations of 6TG (0.01-100 μM). After 2 days, viability of the cells was measured with cell counter TC20. Optimal 6TG dose for Jurkat cells was estimated to be approx. 504. A nominal concentration of 2.5 μM 6TG was elected for subsequent chemo-selection experiments. The results are illustrated in FIG. 20A.

Q: `Nc1nc2nc[nH]c2c(=S)[nH]1` [Candidate 6TG, 6-thioguanine] was tested. Which “Optimal 6TG dose for Jurkat cells” value did it give?
A: approx. 504
